Laboratory results as given in patent US10918645B2 (LIFEARC, priority 2016, dated 2021).

Tests used:
Format in all cases: biochemical
IGF-1R = IGF-1R (Homo sapiens (Human), UniProt P08069); test: IGF-1R kinase selectivity assay; conditions: 1 μM inhibitor concentration
Procedure: IGF-1R (5-20 mU diluted in 50 mM Tris pH 7.5, 0.1 mM EGTA, 1 mg/ml BSA) is assayed against a substrate peptide ([…]) in a final volume of 25.5 μl containing 50 mM Tris pH 7.5, 300 µM substrate peptide, 10 mM magnesium acetate and 0.005 mM [33P-g-ATP] (50-1000 cpm/pmole) and incubated for 30 min at room temperature. Assays are stopped by addition of 5 μl of 0.5 M (3%) orthophosphoric acid and then harvested onto P81 Unifilter plates with a wash buffer of 50 mM orthophosphoric acid.

CAMK1 = CAMK1 (Homo sapiens (Human), UniProt Q14012); test: CAMK1 kinase selectivity assay; conditions: 1 μM inhibitor concentration
Procedure: 5-20 mU of CAMK-1 (diluted in 50 mM Tris (pH 7.5), 0.1 mM EGTA, 1 mg/ml BSA, 0.1%, b-Mercaptoethanol) is assayed against substrate peptide ([…]) in a final volume of 25.5 μl containing 50 mM Tris (pH 7.5), 0.1 mM EGTA, 0.5 mM CaCl2, 0.3 μM calmodulin, 0.1%, b-Mercaptoethanol, 300 μM substrate peptide, 10 mM magnesium acetate and 0.05 mM [33P-g-ATP](500-1000 cpm/pmole) and incubated for 30 mins at room temperature. Assays are stopped by addition of […] of 0.5M (3%) orthophosphoric acid. Assays are harvested onto P81 Unifilter plates using a wash buffer of 50 mM orthophosphoric acid.

DYRK1A = DYRK1A (Homo sapiens (Human), UniProt Q13627); test: DYRK1A kinase selectivity assay; conditions: 1 μM inhibitor concentration
Procedure: DYRK 1A (5-20 mU of diluted in 50 mM Tris pH7.5, 0.1 mM EGTA) is assayed against Woodtide ([…]) in a final volume of 25.5 μl containing 50 mM Tris pH 7.5, 0.1 mM EGTA, 350 μM substrate peptide, 10 mM Magnesium acetate and 0.05 mM [33P-g-ATP](50-1000 cpm/pmole) and incubated for 30 min at room temperature. Assays are stopped by addition of 5 μl of 0.5 M (3%) orthophosphoric acid and then harvested onto P81 Unifilter plates with a wash buffer of 50 mM orthophosphoric acid.

MARK3 = MARK3 (Homo sapiens (Human), UniProt P27448); test: MARK3 kinase selectivity assay; conditions: 1 μM inhibitor concentration
Sequence of MARK3 (P27448 whole entry, species assumed): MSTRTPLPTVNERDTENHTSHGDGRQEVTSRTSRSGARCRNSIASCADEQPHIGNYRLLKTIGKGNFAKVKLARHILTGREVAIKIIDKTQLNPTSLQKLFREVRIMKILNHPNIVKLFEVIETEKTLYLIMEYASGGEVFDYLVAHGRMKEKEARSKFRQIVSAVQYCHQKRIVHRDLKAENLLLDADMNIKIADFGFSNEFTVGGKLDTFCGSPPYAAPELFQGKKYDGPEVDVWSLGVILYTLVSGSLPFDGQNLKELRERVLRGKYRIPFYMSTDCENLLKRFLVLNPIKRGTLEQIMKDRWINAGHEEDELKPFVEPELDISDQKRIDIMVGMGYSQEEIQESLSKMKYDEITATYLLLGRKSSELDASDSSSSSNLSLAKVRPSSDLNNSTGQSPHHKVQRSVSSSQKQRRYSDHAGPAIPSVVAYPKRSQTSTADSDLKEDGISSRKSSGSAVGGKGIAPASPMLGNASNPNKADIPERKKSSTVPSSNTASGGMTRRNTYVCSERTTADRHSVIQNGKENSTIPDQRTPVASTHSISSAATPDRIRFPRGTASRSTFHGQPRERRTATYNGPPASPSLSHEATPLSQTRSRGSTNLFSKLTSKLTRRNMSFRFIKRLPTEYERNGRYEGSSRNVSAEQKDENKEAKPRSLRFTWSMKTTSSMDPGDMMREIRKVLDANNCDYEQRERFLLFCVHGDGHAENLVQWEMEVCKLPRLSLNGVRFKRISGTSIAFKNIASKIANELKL
Procedure: MARK3 (5-20 mU diluted in 50 mM Tris pH 7.5, 0.1 mM EGTA, 0.1% b-mercaptoethanol, 1 mg/ml BSA) is assayed against CHKtide substrate ([…]) in a final volume of 25.5 μl containing 50 mM Tris pH 7.5, 0.05% b-mercaptoethanol, 300 μM substrate peptide, 10 mM magnesium acetate and 0.005 mM [33P-g-ATP](50-1000 cpm/pmole) and incubated for 30 min at room temperature. Assays are stopped by addition of 5 μl of 0.5 M (3%) orthophosphoric acid and then harvested onto P81 Unifilter plates with a wash buffer of 50 mM orthophosphoric acid.

CSK = CSK (Homo sapiens (Human), UniProt P41240); test: CSK kinase selectivity assay; conditions: 1 μM inhibitor concentration
Sequence of CSK (P41240 whole entry, species assumed): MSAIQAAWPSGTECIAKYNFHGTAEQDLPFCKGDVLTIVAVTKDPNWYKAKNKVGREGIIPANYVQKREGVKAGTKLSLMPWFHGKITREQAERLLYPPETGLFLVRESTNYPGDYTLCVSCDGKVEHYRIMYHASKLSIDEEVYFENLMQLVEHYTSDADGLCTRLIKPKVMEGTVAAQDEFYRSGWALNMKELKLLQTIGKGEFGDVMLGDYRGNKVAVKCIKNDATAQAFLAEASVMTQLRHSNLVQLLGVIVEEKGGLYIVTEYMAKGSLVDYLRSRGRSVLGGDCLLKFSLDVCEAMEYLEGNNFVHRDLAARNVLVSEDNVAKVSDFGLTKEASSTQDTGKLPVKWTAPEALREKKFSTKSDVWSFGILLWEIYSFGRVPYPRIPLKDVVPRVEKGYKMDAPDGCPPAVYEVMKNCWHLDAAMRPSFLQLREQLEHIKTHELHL
Procedure: CSK (5-20 mU diluted in 20 mM MOPS pH7.5, 1 mM EDTA, 0.01% Brij35, 5% glycerol, 0.1% b-mercaptoethanol, 1 mg/ml BSA) is assayed against Cdc2 peptide ([…]) in a final volume of 25.5 μl containing 8 mM MOPS pH7.0, 0.2 mM EDTA, Cdc2 peptide (0.25 mM), 10 mM magnesium acetate and 0.02 mM [33P-g-ATP](500-1000 cpm/pmole) and incubated for 30 min at room temperature Assays are stopped by addition of 5 μl of 0.5 M (3%) orthophosphoric acid and then harvested onto P81 Unifilter plates with a wash buffer of 50 mM orthophosphoric acid.

JAK2 = JAK2 (Homo sapiens (Human), UniProt O60674); test: JAK2 kinase selectivity assay (33P panel); conditions: 1 μM inhibitor concentration
Procedure: JAK2 (5-20 mU diluted in 50 mM Tris pH 7.5, 0.1 mM EGTA, 0.05% 0-mercaptoethanol, 1 mg/ml BSA) is assayed against PDKtide ([…]-[…]) in a final volume of 25.5 μl containing 50 mM Tris pH 7.5, 0.1 mM EGTA, 0.05% 0-mercaptoethanol, 100 μM substrate peptide, 10 mM magnesium acetate and 0.005 mM [33P-γ-ATP] (50-1000 cpm/pmole) and incubated for 30 min at room temperature Assays are stopped by addition of 5 μl of 0.5 M (3%) orthophosphoric acid and then harvested onto P81 Unifilter plates with a wash buffer of 50 mM orthophosphoric acid.

LRRK2 G2019S = LRRK2 G2019S (Homo sapiens (Human), UniProt Q5S007, G2019S); test: Adapta Kinase Assay (LRRK2_IC50 assay); conditions: inhibition of LRRK2 G2019S
Sequence of LRRK2 G2019S (Q5S007 970-2527 G2019S): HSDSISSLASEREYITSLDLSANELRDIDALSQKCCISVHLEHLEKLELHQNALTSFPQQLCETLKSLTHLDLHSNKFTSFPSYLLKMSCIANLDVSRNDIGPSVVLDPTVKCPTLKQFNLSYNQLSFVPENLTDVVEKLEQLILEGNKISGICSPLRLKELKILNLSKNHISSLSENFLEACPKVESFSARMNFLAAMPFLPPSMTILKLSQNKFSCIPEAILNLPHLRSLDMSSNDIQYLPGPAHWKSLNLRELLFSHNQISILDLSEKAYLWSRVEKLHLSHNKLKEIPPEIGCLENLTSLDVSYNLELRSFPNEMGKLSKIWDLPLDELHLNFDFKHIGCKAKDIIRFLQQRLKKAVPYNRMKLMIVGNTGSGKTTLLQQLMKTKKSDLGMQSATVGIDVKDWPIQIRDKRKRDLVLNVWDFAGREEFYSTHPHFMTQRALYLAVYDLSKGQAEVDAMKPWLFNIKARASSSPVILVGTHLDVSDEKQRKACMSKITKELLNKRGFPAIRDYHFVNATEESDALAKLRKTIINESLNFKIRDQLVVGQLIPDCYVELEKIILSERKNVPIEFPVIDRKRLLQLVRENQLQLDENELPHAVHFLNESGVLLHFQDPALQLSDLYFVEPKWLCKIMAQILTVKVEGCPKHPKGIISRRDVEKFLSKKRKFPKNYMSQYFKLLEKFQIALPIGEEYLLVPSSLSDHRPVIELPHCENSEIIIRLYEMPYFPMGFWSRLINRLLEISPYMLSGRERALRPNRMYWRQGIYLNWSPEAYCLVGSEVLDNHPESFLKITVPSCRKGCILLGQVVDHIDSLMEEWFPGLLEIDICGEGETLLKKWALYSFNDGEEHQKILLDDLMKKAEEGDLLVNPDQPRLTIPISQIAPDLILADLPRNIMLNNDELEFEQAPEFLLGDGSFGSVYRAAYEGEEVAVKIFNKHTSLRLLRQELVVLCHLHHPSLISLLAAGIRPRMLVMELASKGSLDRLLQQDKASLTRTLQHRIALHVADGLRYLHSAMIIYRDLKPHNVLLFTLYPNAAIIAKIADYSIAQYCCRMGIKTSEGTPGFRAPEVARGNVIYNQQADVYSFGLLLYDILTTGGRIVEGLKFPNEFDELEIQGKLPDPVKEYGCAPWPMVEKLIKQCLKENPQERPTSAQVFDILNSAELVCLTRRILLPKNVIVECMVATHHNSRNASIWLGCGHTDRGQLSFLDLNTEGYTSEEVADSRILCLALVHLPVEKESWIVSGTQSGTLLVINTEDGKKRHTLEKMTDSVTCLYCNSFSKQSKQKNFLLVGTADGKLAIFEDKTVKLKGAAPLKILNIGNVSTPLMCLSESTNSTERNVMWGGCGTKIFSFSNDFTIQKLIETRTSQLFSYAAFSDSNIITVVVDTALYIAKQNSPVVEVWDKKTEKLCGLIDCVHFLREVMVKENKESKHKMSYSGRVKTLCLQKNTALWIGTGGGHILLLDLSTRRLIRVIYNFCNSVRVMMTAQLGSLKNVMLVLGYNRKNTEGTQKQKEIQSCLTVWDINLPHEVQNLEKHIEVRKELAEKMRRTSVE

Sequence of IGF-1R (P08069 31-1367, species assumed): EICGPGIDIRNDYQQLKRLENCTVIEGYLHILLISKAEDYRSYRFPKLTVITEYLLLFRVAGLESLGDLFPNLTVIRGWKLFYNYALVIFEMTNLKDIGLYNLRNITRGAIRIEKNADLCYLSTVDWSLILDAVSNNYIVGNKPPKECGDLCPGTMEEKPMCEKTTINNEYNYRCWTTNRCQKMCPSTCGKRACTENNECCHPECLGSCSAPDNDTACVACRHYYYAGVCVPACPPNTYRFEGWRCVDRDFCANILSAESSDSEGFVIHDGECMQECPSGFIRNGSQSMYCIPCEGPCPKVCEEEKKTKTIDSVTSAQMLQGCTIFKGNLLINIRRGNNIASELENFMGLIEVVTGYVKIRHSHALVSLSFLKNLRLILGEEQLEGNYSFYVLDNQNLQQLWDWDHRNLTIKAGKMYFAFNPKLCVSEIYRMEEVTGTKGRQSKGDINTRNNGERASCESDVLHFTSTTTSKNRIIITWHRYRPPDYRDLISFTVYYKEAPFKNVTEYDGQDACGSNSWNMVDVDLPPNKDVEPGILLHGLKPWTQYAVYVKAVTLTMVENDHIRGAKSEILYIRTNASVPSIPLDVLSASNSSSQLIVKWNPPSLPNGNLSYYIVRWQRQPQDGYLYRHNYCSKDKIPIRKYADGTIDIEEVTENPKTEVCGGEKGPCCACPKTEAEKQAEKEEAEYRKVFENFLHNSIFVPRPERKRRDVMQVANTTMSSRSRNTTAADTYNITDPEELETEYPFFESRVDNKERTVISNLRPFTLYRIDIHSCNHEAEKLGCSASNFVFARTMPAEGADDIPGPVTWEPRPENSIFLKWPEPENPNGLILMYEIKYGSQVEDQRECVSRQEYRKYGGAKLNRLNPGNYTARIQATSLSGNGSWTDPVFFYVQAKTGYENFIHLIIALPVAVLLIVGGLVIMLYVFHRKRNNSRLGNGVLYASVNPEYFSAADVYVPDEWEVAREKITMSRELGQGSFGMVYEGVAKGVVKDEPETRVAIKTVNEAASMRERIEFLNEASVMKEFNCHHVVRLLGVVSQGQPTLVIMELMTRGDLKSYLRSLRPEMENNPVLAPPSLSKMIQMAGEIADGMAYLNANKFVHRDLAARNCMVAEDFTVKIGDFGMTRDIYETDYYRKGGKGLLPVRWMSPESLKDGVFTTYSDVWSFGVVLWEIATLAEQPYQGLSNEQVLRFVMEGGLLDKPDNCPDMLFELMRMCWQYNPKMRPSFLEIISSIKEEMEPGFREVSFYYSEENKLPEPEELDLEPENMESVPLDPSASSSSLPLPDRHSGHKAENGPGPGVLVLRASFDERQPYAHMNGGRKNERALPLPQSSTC

| SMILES | percentage inhibition of IGF-1R (IGF-1R) [percentage] | percentage inhibition of CAMK1 (CAMK1) [percentage] | percentage inhibition of DYRK1A (DYRK1A) [percentage] | percentage inhibition of MARK3 (MARK3) [percentage] | percentage inhibition of CSK (CSK) [percentage] | percentage inhibition of JAK2 (JAK2) [percentage] | IC50 (LRRK2 G2019S) [µM] |
| --- | --- | --- | --- | --- | --- | --- | --- |
| c1cc2[nH]nc3c2c(n1)N(C1CCC1)CCC3 [Example 22, 6-cyclobutyl-6,7,8,9-tetrahydro-2H-1,2,5,6-tetraazabenzo[cd]azulene] | 9 | 0 | 16 | 1 | 1 | 5 |  |
| c1cc2[nH]nc3c2c(n1)N(C1CCCC1)CCC3 [Example 23, 6-cyclopentyl-6,7,8,9-tetrahydro-2H-1,2,5,6-tetraazabenzo[cd]azulene] | 2 | 0 | 0 | 0 | 0 | 12 |  |
| c1cc2[nH]nc3c2c(n1)N(C1CCOCC1)CCC3 [Example 29, 6-(tetrahydro-2H-pyran-4-yl)-6,7,8,9-tetrahydro-2H-1,2,5,6-tetraazabenzo[cd]azulene] | 9 | 0 | 4 | 13 | 0 |  | 0.15 |
| CN1CCC(N2Cc3ccccc3-c3n[nH]c4ccnc2c34)CC1 [Example 55] | 8 | 25 | 8 | 47 | 0 |  | 0.05 |
| CC(C)n1ncc2c1CN(C1CCN(C)CC1)c1nccc3[nH]nc-2c13 [Example 68] | 0 | 45 | 0 | 43 | 0 |  |  |
